Legend:
Experiment in all cases: NCI 60 cell line screen
786-0 = format: cell-based; conditions: Homo sapiens; 786-0, Renal Cancer; read-out: Percent growth
Method in brief: (§1)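 Cells seeded, incubated 24 h, then a time-zero plate fixed with TCA. Drug added at five concentrations up to 10 µM for 48 h at 37 °C. Cells fixed with TCA (16% for suspension lines), stained with SRB, absorbance read at 515 nm.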

A498 = format: cell-based; conditions: Homo sapiens; A498, Renal Cancer; read-out: Percent growth
Method in brief: as §1

COLO 205 = format: cell-based; conditions: Homo sapiens; COLO 205, Colon Cancer; read-out: Percent growth
Method in brief: as §1

HCC-2998 = format: cell-based; conditions: Homo sapiens; HCC-2998, Colon Cancer; read-out: Percent growth
Method in brief: as §1

HCT-116 = format: cell-based; conditions: Homo sapiens; HCT-116, Colon Cancer; read-out: Percent growth
Method in brief: as §1

HS 578T = format: cell-based; conditions: Homo sapiens, Breast Cancer, read-out: Percent growth
Method in brief: as §1

MCF7 = format: cell-based; conditions: Homo sapiens; MCF7, Breast Cancer; read-out: Percent growth
Method in brief: as §1

SF-539 = format: cell-based; conditions: Homo sapiens; SF-539, CNS-Cancer; read-out: Percent growth
Method in brief: as §1

SK-MEL-28 = format: cell-based; conditions: Homo sapiens; SK-MEL-28, Melanoma; read-out: Percent growth
Method in brief: as §1

SW-620 = format: cell-based; conditions: Homo sapiens; SW-620, Colon Cancer; read-out: Percent growth
Method in brief: as §1

EKVX = format: cell-based, human; conditions: Homo sapiens, Non-Small Cell Lung Cancer, read-out: Percent growth
Experimental: (§2) Anticancer profiling over a panel of 60 cancer cell lines was carried out at the National Cancer Institute (NCI), Bethesda, Maryland, USA, https://dtp.cancer.gov/discovery_development/nci-60/methodology.htm (Last visit 22 September 2021), using the standard procedure (detailed procedure is located in the Supplementary Information page 50 s).
(§3) NCI standard procedure for 60 cell lines assay
(§4) The human tumor cell lines of the cancer screening panel are grown in RPMI 1640 mediu m containing 5% fetal bovine serum and 2 mM L-glutamine. For a typical screening experiment, cells are inoculated into 96 well microtiter plates in 100 μL at plating densities ranging from 5,000 to 40,000 cells/well depending on the doubling time of individual cell lines. After cell inoculation, the microtiter plates are incubated at 37° C, 5 % CO2, 95 % air and 100 % relative humidity for 24 h prior to addition of experimental drugs.
(§5) After 24 h, two plates of each cell line are fixed in situ with TCA, to represent a measurement of the cell population for each cell line at the time of drug addition (Tz). Experimental drugs are solubilized in dimethyl sulfoxide at 400-fold the desired final maximum test concentration (10 µM) and stored frozen prior to use. At the time of drug addition, an aliquot of frozen concentrate is thawed and diluted to twice the desired final maximum test concentration with co mp lete medium containing 50 μg/ml gentamicin. Additional four, 10-fold or ½ log serial dilutions are made to provide a total of five drug concentrations plus control. Aliquots of 100 μl of these different drug dilutions are added to the appropriate microtiter wells already containing 100 μl of medium, resulting in the required final drug concentrations.
(§6) Following drug addition, the plates are incubated for an additional 48 h at 37°C, 5 % CO2, 95 % air, and 100 % relative humidity. For adherent cells, the assay is terminated by the addition of cold TCA. Cells are fixed in situ by the gentle addition of 50 μl of cold 50 % (w/v) TCA (final concentration, 10 % TCA) and incubated for 60 minutes at 4°C. The supernatant is discarded, and the plates are washed five times with tap water and air dried. Sulforhodamine B (SRB) solution (100 μl) at 0.4 % (w/v) in 1 % acetic acid is added to each well, and plates are incubated for 10 minutes at room temperature. After staining, unbound dye is removed by washing five times with 1 % acetic acid and the plates are air dried. Bound stain is subsequently solubilized with 10 mM trizma base, and the absorbance is read on an automated plate reader at a wavelength of 515 nm. For suspension cells, the methodology is the same except that the assay is terminated by fixing settled cells at the bottom of the wells by g ently adding 50 μl of 80 % TCA (final concentration, 16 % TCA). Using the seven absorbance measurements [time zero, (Tz), control growth, (C), and test growth in the presence of drug at the five concentration levels (Ti)], the percentage growth is calculated at each of the drug concentrations levels. Percentage growth inhibition is calculated as:
(§7) [(Ti-Tz)/(C-Tz)] x 100 for concentrations for which Ti>/=Tz
(§8) [(Ti-Tz)/Tz] x 100 for concentrations for which Ti<Tz.
(§9) Three dose response parameters are calculated for each experimental agent. Growth inhibition of […]
(§10) resulting in a 50% reduction in the net protein increase (as measured by SRB staining) in control cells during the drug incubation. The drug concentration resulting in total growth inhibition […]
(§11) (TGI) is calculated from Ti = Tz.

HOP-92 = format: cell-based, human; conditions: for activity at 10 µM: Homo sapiens, HOP-92, Non-Small Cell Lung Cancer, read-out: Percent growth
Experimental: as §2, §3, §4, §5, §6, §7, §8, §9, §10, §11

NCI-H23 = format: cell-based, human; conditions: Homo sapiens; NCI-H23, Non-Small Cell Lung Cancer; read-out: Percent growth
Experimental: as §2, §3, §4, §5, §6, §7, §8, §9, §10, §11

NCI-H522 = format: cell-based, human; conditions: Homo sapiens; NCI-H522, Non-Small Cell Lung Cancer; read-out: Percent growth
Experimental: as §2, §3, §4, §5, §6, §7, §8, §9, §10, §11

NCI/ADR-RES = format: cell-based, human; conditions: Homo sapiens, Ovarian Cancer, read-out: Percent growth
Experimental: as §2, §3, §4, §5, §6, §7, §8, §9, §10, §11

PC-3 = format: cell-based, human; conditions: Homo sapiens; PC-3, Prostate Cancer; read-out: Percent growth
Experimental: as §2, §3, §4, §5, §6, §7, §8, §9, §10, §11

RXF 393 = format: cell-based, human; conditions: Homo sapiens; RXF 393, Renal Cancer; read-out: Percent growth
Experimental: as §2, §3, §4, §5, §6, §7, §8, §9, §10, §11

SF-295 = format: cell-based, human; conditions: Homo sapiens; SF-295, CNS-Cancer; read-out: Percent growth
Experimental: as §2, §3, §4, §5, §6, §7, §8, §9, §10, §11

SNB-75 = format: cell-based, human; conditions: Homo sapiens; SNB-75, CNS-Cancer; read-out: Percent growth
Experimental: as §2, §3, §4, §5, §6, §7, §8, §9, §10, §11

SR = format: cell-based, human; conditions: for activity at 10 µM: Homo sapiens, Leukemia, read-out: Percent growth; for percent inhibition: NCI-60 heat map analysis
Experimental: as §2, §3, §4, §5, §6, §7, §8, §9, §10, §11

UO-31 = format: cell-based, human; conditions: for activity at 10 µM: Homo sapiens, UO-31, Renal Cancer, read-out: Percent growth
Experimental: as §2, §3, §4, §5, §6, §7, §8, §9, §10, §11

Row | Structure (SMILES) | activity at 10 µM (786-0) [%] | activity at 10 µM (A498) [%] | activity at 10 µM (COLO 205) [%] | activity at 10 µM (HCC-2998) [%] | activity at 10 µM (HCT-116) [%] | activity at 10 µM (HS 578T) [%] | activity at 10 µM (MCF7) [%] | activity at 10 µM (SF-539) [%] | activity at 10 µM (SK-MEL-28) [%] | activity at 10 µM (SW-620) [%] | activity at 10 µM (EKVX) [%] | activity at 10 µM (HOP-92) [%] | activity at 10 µM (NCI-H23) [%] | activity at 10 µM (NCI-H522) [%] | activity at 10 µM (NCI/ADR-RES) [%] | activity at 10 µM (PC-3) [%] | activity at 10 µM (RXF 393) [%] | activity at 10 µM (SF-295) [%] | activity at 10 µM (SNB-75) [%] | activity at 10 µM (SR) [%] | further results
1 | COc1ccc(S(=O)(=O)NCCNc2nccc(-n3cnc4ccccc43)n2)cc1 [12f, N-(2-((4-(1H-benzo [d]imidazol-1-yl)pyrimidin-2-yl)amino)ethyl)-4-methoxy benzenesulfonamide] | 93 | 82.9 | 99.8 | 99.7 | 98 | 84.1 | 86.2 | 96.2 | 97.9 | 103 | 89.2 | 75.4 | 96.9 | 84.4 | 98.7 | 97.5 | 94.6 | 97 | 78.8 | 89.2 | activity at 10 µM (UO-31): 77.3%
2 | O=S(=O)(NCCCNc1nccc(-n2cnc3ccccc32)n1)c1ccc(Cl)cc1 [12j, N-(3-((4-(1H-benzo [d]imidazol-1-yl)pyrimidin-2-yl)amino)propyl)-4-chloro benzenesulfonamide] | 103 | 73 | 110 | 108 | 94.1 | 105 | 89 | 91.9 | 108 | 110 | 91 | 94.6 | 97.1 | 82.8 | 98.2 | 92.5 | 124 | 97.8 | 91.7 | 81.5 | activity at 10 µM (UO-31): 87.2%
3 | O=S(=O)(NCCNc1nccc(-n2cnc3ccccc32)n1)c1ccc(F)cc1 [12b, N-(2-((4-(1H-benzo [d]imidazol-1-yl)pyrimidin-2-yl)amino)ethyl)-4-fluorobenzenesulfonamide] | 102 | 80.7 | 102 | 104 | 83.6 | 85.5 | 87.7 | 83.7 | 101 | 100 | 85.2 | 82.3 | 95.8 | 71.8 | 103 | 91.3 | 106 | 93.6 | 73.6 | 85.8 | activity at 10 µM (UO-31): 72.6%
4 | Cc1ccc(S(=O)(=O)NCCNc2nccc(-n3cnc4ccccc43)n2)cc1 [12g, N-(2-((4-(1H-benzo [d]imidazol-1-yl)pyrimidin-2-yl)amino)ethyl)-4-methyl benzenesulfonamide] | 85.4 | 62.1 | 86.8 | 93.1 | 64.1 | 64.2 | 67.9 | 79.7 | 94.4 | 90.8 | 56.1 | 57.9 | 74.6 | 64.6 | 75.7 | 76.1 | 55.4 | 75.5 | 69 | 53.6 | percent inhibition (HOP-92; HOP-92, NCI-60 heat map analysis): around 40%; percent inhibition (SR): around 45%; activity at 10 µM (UO-31): 52%; percent inhibition (UO-31; UO-31, NCI-60 heat map analysis): 48%
5 | O=S(=O)(NCCNc1nccc(-n2cnc3ccccc32)n1)c1ccc(Cl)cc1 [12c, N-(2-((4-(1H-benzo [d]imidazol-1-yl)pyrimidin-2-yl)amino)ethyl)-4-chlorobenzenesulfonamide] | 99 | 84.8 | 104 | 101 | 94.6 | 88.1 | 87.9 | 91.2 | 101 | 100 | 92.2 | 90.2 | 101 | 92.1 | 97.8 | 103 | 117 | 96.7 | 79.4 | 96.3 | activity at 10 µM (UO-31): 81.6%
6 | O=S(=O)(NCCCNc1nccc(-n2cnc3ccccc32)n1)c1ccc(Br)cc1 [12k, N-(3-((4-(1H-benzo [d]imidazol-1-yl)pyrimidin-2-yl)amino)propyl)-4-bromo benzenesulfonamide] | 91.7 | 77.2 | 108 | 112 | 90.3 | 90 | 86.7 | 85.2 | 102 | 106 | 81.5 | 79.3 | 92.8 | 75.5 | 88.9 | 84.7 | 111 | 86.5 | 86.1 | 70.8 | percent inhibition (SR): 30%; activity at 10 µM (UO-31): 74.3%

— article PMC8508980, “Design, Synthesis and Anticancer Profile of New 4-(1H-benzo[d]imidazol-1-yl)pyrimidin-2-amine-Linked Sulfonamide Derivatives with V600EBRAF Inhibitory Effect” (International Journal of Molecular Sciences, 2021)
